Assay [1] deals with Tyrosine-protein kinase ABL1 (Homo sapiens), P00519 [Q252H]. The experiment in a line: Inhibition of phosphorylated ABL1 Q252H mutant (unknown origin) assessed as residual activity at 100 nM by KINOMEscan analysis relative to control.
Assay [2] deals with T1, Dual serine/threonine and tyrosine protein kinase (Homo sapiens) (UniProt Q6XUX3).
T1 sequence (whole entry): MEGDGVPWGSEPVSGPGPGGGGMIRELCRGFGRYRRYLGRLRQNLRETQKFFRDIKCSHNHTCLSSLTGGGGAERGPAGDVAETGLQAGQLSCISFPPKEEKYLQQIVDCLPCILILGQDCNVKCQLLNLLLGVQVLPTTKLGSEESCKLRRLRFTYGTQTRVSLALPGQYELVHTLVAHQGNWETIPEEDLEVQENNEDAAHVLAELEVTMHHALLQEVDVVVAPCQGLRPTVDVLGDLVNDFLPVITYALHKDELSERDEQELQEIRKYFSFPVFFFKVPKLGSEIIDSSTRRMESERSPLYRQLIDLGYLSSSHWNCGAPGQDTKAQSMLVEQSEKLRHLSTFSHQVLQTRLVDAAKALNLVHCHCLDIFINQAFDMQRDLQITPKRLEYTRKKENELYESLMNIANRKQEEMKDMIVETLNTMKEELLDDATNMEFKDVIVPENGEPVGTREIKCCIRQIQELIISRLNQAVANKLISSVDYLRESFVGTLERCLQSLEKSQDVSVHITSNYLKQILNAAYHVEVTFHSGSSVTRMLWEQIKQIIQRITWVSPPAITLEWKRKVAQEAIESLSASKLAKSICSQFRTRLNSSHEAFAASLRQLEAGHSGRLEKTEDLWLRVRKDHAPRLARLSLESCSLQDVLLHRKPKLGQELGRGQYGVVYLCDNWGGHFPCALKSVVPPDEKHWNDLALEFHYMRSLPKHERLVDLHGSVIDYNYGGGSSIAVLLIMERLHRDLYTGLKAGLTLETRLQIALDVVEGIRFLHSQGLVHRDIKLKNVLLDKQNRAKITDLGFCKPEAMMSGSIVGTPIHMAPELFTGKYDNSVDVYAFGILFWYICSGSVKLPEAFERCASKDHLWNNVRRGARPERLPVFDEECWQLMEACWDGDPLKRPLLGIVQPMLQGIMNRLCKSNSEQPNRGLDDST
The experiment in a line: Inhibition of RIPK5 (unknown origin) assessed as residual activity at 100 nM by KINOMEscan analysis relative to control.

Assay [3] deals with T2, Uncharacterized serine/threonine-protein kinase SBK3 (Homo sapiens) (UniProt P0C264).
T2 sequence (whole entry): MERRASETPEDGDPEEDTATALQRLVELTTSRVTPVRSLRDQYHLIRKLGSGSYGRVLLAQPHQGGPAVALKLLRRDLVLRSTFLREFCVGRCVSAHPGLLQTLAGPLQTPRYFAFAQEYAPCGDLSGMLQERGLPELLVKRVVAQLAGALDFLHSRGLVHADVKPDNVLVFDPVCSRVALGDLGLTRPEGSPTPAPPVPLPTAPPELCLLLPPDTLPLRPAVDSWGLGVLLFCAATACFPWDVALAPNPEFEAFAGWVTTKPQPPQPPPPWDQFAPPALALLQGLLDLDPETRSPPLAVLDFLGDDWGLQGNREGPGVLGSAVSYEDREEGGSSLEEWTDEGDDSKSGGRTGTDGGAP
The assay can be described thus: Inhibition of SgK110 (unknown origin) assessed as residual activity at 100 nM by KINOMEscan analysis relative to control.

Assay [4] addresses Casein kinase I isoform gamma-1 (Homo sapiens) (UniProt Q9HCP0). The assay can be described thus: Inhibition of CSNK1G1 (unknown origin) assessed as residual activity at 100 nM by KINOMEscan analysis relative to control.
For assay [5], the target named is T3, Bone morphogenetic protein receptor type-2 (Homo sapiens) (UniProt Q13873).
T3 sequence (whole entry): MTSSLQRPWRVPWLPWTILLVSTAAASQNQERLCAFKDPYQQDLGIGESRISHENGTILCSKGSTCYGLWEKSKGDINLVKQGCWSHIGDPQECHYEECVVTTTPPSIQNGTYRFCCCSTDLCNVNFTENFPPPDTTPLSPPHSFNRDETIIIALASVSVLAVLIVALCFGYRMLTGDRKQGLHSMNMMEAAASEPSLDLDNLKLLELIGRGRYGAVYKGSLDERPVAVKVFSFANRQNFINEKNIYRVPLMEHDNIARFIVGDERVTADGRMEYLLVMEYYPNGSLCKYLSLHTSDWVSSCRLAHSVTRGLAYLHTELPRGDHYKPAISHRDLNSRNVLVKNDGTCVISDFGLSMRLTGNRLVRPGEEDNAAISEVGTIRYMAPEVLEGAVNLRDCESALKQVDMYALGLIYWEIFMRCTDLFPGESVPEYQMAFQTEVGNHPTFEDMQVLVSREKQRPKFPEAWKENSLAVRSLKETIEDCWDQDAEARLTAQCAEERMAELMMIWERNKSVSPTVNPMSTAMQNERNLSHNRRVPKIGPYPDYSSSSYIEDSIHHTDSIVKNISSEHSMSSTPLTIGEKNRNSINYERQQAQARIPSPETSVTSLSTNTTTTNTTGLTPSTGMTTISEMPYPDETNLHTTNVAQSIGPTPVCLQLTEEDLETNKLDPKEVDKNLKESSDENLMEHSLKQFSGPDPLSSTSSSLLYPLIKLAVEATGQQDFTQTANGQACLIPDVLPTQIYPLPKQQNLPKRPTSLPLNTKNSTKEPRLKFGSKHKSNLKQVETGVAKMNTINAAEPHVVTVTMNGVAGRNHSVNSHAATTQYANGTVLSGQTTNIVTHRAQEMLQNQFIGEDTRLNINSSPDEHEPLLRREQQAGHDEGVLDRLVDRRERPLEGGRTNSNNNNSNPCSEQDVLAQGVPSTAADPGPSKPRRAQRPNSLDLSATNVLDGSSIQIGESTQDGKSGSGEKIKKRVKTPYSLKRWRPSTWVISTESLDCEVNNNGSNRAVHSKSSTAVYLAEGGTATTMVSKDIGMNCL
The experiment in a line: Inhibition of BMPR2 (unknown origin) assessed as residual activity at 100 nM by KINOMEscan analysis relative to control.

The target in assay [6] is SRSF protein kinase 2 (Homo sapiens) (UniProt P78362). The assay can be described thus: Inhibition of SRPK2 (unknown origin) assessed as residual activity at 100 nM by KINOMEscan analysis relative to control.
Sequence of SRSF protein kinase 2 (Homo sapiens) (P78362 whole entry, looked up): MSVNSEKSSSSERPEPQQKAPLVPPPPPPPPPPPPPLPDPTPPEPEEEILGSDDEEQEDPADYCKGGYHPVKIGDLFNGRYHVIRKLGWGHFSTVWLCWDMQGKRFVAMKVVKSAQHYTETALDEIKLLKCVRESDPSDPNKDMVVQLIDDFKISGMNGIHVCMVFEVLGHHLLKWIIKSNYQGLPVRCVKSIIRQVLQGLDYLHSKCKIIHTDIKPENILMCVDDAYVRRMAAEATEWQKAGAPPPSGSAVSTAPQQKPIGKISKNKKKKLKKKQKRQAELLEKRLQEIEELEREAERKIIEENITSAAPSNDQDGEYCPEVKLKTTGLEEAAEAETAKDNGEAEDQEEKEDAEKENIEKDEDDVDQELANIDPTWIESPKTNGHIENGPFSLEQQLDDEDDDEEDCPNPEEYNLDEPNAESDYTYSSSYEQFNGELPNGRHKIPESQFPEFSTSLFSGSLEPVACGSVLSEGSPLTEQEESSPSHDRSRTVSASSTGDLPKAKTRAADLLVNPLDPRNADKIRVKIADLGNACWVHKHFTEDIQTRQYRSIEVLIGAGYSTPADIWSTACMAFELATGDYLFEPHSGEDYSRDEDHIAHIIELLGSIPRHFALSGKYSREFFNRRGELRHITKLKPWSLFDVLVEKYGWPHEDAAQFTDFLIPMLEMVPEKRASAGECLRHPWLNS

Sequence of Casein kinase I isoform gamma-1 (Homo sapiens) (Q9HCP0 whole entry, looked up, canonical isoform): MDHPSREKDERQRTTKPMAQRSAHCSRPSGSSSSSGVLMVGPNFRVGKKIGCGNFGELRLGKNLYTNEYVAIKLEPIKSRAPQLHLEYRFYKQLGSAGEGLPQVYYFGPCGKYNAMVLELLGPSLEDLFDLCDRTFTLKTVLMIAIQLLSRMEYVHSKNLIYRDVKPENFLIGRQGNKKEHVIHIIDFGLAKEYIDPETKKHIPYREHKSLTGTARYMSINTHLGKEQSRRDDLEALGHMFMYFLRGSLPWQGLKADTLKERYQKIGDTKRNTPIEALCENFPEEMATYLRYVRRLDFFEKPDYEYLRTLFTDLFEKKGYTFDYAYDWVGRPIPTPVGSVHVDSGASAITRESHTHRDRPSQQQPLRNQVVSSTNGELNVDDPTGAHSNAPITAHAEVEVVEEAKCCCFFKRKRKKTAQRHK

For `COc1cc2ncnc(N[C@H](C)c3cccc4ccccc34)c2cc1OC`, the Activity in assay [1] turned out to be 96%; in assay [2], 96%; in assay [3], 100%; in assay [4], 99%; in assay [5] it was 97%; in assay [6], 92%.

The values are drawn from ChEMBL document CHEMBL5678818, “Discovery of potent SOS1 inhibitors that block RAS activation via disruption of the RAS-SOS1 interaction” (Proc Natl Acad Sci U S A, 2019).
